Where two headings read alike, the source gives them in different places.
Experiments:
[1] = system: quinone reductase 1 (NQ01, QR1); design: method as in PMID 21187465; conditions: cell culture; cited from earlier work
[2] = system: glutathione S-transferase (GST); design: method as in PMID 21187465; conditions: cell culture; cited from earlier work
[3] = design: method as in PMID 21187465; conditions: cited from earlier work
[4] = system: NFκB; design: method as in PMID 21105712; conditions: earlier work; read-out: IC50, inhibition of NFκB; cited from earlier work
[5] = system: iNOS; design: method as in PMID 21105712; conditions: cited from earlier work
[6] = system: NFκB; experiment: TNF-α-induced NFκB luciferase reporter assay in stably-transfected human embryonic kidney cells 293; type: cell-based; conditions: human embryonic kidney cells 293 NFκB reporter, TNF-α 2 ng/mL, 6 h; read-out: IC50, inhibition of TNF-α-induced NFκB activity
Protocol: Activation of NFκB may promote cell proliferation or prevent cell death through apoptosis. Inhibition of NFκB signaling has potential application for the treatment or prevention of cancer; some inhibitors are known. […] […].
We employed human embryonic kidney cells 293 Panomic (Fremont, CA, USA) for monitoring changes occurring along the NFκB pathway. Stable constructed cells were seeded into sterile 96-well plate at 20 × 10^3 cells per well. Cells maintained in Dulbecco’s modified Eagle’s medium (DMEM) Invitrogen Co. (Carlsbad, CA, USA), supplemented with 10% FBS, 100 units/mL penicillin, 100 µg/mL streptomycin, 2 mM L-glutamine. After 48 h incubation, the medium was replaced and cells were treated with various concentration of test substances dissolved in PBS. TNF-α (Human, Recombinant, E. coli, Calbiochem, Gibbstown, NJ, USA) was used as an activator at a concentration of 2 ng/mL (0.14 nM). The plate was incubated for 6 h. Spent medium was discarded and the cells were washed once with PBS. Cells were lysed using 50 µL (for 96-well plate) Reporter Lysis Buffer from Promega, by incubating for 5 min on a shaker, and stored at −80 °C. The luciferase assay was performed using the Luc assay system from Promega (Madison, WI, USA). The gene product, luciferase enzyme, reacts with luciferase substrate, emitting light which was detected using a luminometer (LUMIstar Galaxy BMG). Data for NFκB constructs are expressed as IC50 values (i.e., concentration required to inhibit TNF-activated NFκB activity by 50%).

[7] = system: PGE2 production in LPS-induced RAW 264.7 cells; experiment: LPS-induced PGE2 production in RAW 264.7 cells (ELISA); type: cell-based; conditions: Mus musculus
Protocol: RAW 264.7 cells (1 × 10^5 cells/well, 200 µL) were incubated in a 96-well culture plate in the presence of 5% CO2 at 37 °C for 24 h. The medium was changed to non-colored DMEM containing 5% FBS, and the cells were treated with various concentrations of compounds for 30 min followed by 1 μg/mL of LPS treatment for 24 h. Cell media were collected, diluted 18-times and used for measuring PGE2. Nunc-Immuno 96-well plates were coated with secondary antibody (goat anti-mouse IgG) affinity purified (Jackson Immuno Research Laboratories). Aliquots of cell media were added to the immune plate with primary PGE2 monoclonal antibody (Cayman Chemical) and a tracer PGE2-acetylcholinesterase (Cayman Chemical) and incubated overnight at room temperature in the dark. The next day, the wells were aspirated, washed, 200 µL of Elman’s reagent was added in each well, and incubated 2–5 h at 37 °C out of direct light until control wells reach an optical density 0.4–0.5. Gentle rotating/shaking was used to decrease the time required for color development. Absorbance was read at 412 nm. The PGE2 concentration of each sample was calculated from a PGE2 standard curve (PGE2 from Cayman Chemical). The percent inhibition as a function of the inhibitor concentration was graphed to determine the IC50 values (concentration at which there was 50% inhibition).

[8] = system: NO production in LPS-induced RAW 264.7 cells; experiment: LPS-induced NO production in RAW 264.7 cells (Griess reagent); conditions: Mus musculus
Protocol: The amount of nitrite was measured using the Griess reagent to assess the NO production [47, 48]. […] The cells were treated with various concentrations of compounds dissolved in phenol-red free DMEM for 30 min followed by 1 μg/mL of LPS treatment for 24 h. […] The standard curve was created by using known concentrations of sodium nitrite.

[9] = system: RAW 264.7 cells; experiment: Cell viability (SRB) of RAW 264.7 cells in the NO assay; type: cell-based; conditions: 50 µM

Oc1c(Br)cc(Br)c2nc3ccccc3nc12 [2,4-dibromo-1-hydroxyphenazine]
activation of QR1 [1]: activate | activation of glutathione S-transferase (GST) [2]: activate | bioavailability [3]: poor bioavailability | in vivo activity [3]: low

Oc1c(Br)ccc2nc3ccccc3nc12 [2-bromo-1-hydroxyphenazine]
IC50 [4]: 73 µM | inhibition of iNOS activity [5]: did not inhibit iNOS activity

Cc1ccc(S(=O)(=O)/C=C/C#N)cc1 [BAY-11-7082, reference compound]
IC50 [6]: 2 ± 0.28 µM

Oc1ccc(/C=C/c2cc(O)cc(O)c2)cc1 [Resveratrol, resveratrol, reference compound]
IC50 [6]: 2.5 ± 0.3 µM | inhibition at 50 µM ([7]; RAW264.7, read-out: PGE2 % inhibition (50 µM)): 70.2 ± 13.9% | IC50 ([7]; RAW264.7, read-out: PGE2 IC50): 2.5 ± 0.43 µM | inhibition at 50 µM ([8]; RAW264.7, read-out: NO % inhibition (50 µM), LPS-induced RAW 264.7 cells, 50 µM): 93 ± 0.8% | IC50 ([8]; RAW264.7, read-out: NO IC50): 31.9 ± 1.8 µM | NO % cell survival [9]: 86.9 ± 3.9%

Cc1ccc(S(=O)(=O)N[C@@H](Cc2ccccc2)C(=O)CCl)cc1 [TPCK, N-tosyl-L-phenylalanyl chloromethyl ketone, reference compound]
IC50 [6]: 3.8 µM
